We go through three molecules from patent US20240366661A1, “COMPOSITIONS FOR AND METHODS OF TREATING A SUBJECT HAVING INFLAMMATION” (The George Washington University, priority 2022, published 2024).

Entries after “also recorded” stand apart in the source; their conditions may differ.

Assay [1] has as its system peritoneal exudated macrophages (PEMs). The assay can be described thus: ELISA of IL-10 and TGFβ cytokines in peritoneal exudate macrophages treated with HDAC11 inhibitor. Format: cell-based. The note with it: dose-dependent. The text has this:
Upon treatment with M-CSF, bone marrow-derived monocytes (BMDM) differentiate into naïve (M0) macrophages. In the case of peritoneal exudate macrophages (PEMs), naïve M0 macrophages are isolated from the peritoneal cavity. These M0 macrophages are pre-treated with HDAC11 inhibitor followed by polarization to M2 macrophages with IL4 and IL13 cytokines or other cytokine mix including but not limited to IL10 and TGF beta. […] A chromatin immunoprecipitation assay further confirmed that HDAC11 binded preferentially to the distal promoter region of IL10, and negatively regulated its gene expression (FIG. 1B). […] This confirmed that the HDAC11 inhibitor was highly specific, and that it could recapitulate the effect of HDAC11 genetic knock down.
Therefore, HDAC11 inhibitor treated M2 macrophages as a cell therapy and or topical HDAC11 inhibitor application are excellent to treat inflammatory diseases.

For assay [2], the system named is murine bone marrow derived macrophages (BMDMs). Briefly: QRT-PCR of M2 markers in bone marrow derived macrophages pre-treated with HDAC11 inhibitor and polarized to M2. The settings on record: inhibitor 5 μM pre-treatment overnight prior to M2 polarization. Type of assay: cell-based. The protocol:
Upon treatment with M-CSF, bone marrow-derived monocytes (BMDM) differentiate into naïve (M0) macrophages. In the case of peritoneal exudate macrophages (PEMs), naïve M0 macrophages are isolated from the peritoneal cavity. These M0 macrophages are pre-treated with HDAC11 inhibitor followed by polarization to M2 macrophages with IL4 and IL13 cytokines or other cytokine mix including but not limited to IL10 and TGF beta.
Next, HDAC11 inhibitors were evaluated for their ability to modulate the function of macrophages. […] These commercially available HDAC11 inhibitors were tested on macrophages in-vitro to identify their macrophage modulatory properties. Next, BMDMs were isolated and polarized towards M2 phenotype with HDAC11 inhibitor pre-treatment overnight.

The next assay addresses T1, HDAC11 (Homo sapiens, UniProt Q96DB2).
T1 sequence (Q96DB2 1-347): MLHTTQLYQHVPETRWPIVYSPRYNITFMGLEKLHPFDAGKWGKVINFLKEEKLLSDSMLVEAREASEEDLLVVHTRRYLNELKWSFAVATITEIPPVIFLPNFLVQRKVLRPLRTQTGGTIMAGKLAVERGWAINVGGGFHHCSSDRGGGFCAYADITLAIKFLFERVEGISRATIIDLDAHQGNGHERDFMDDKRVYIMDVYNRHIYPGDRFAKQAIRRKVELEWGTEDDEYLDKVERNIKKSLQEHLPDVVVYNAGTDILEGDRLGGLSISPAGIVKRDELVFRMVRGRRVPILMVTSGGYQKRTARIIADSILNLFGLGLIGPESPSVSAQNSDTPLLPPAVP
The note with it: literature statement; cited from earlier work.

For `COc1ccccc1NC(=O)NCc1ccc(C(=O)NO)cc1` [elevenostat], in assay [1], the “expression of IL-10 cytokine” value was “increased the expression of IL-10 and TGFβ cytokines in a dose-dependent manner; also recorded: dose dependent increase”; the “expression of TGFβ cytokine” value was “increased the expression of IL-10 and TGFβ cytokines in a dose-dependent manner; also recorded: dose dependent increase”.
Turning to `CCCCCCCCCCCCCCCCNNC(=O)c1cccs1` [SIS17], in assay [2], the Arg1 expression result is “increased the expression of Arg1 and Mrc1”; the Fizz1 expression entry is “further enhanced the expression of Fizz1”; the Mrc1 expression result is “increased the expression of Arg1 and Mrc1”. In addition, the “inhibition of HDAC11 (demyristoylation activity; potency and selectivity)” value at HDAC11 is on record as “inhibit the demyristoylation activity of HDAC11 without inhibiting other HDACs”.
As to `CC1(C)c2cccc(C(=O)NO)c2CN1c1cnc(C(F)(F)F)cn1` [FT895], in assay [2], the Arg1 expression result is “did not affect”, the Fizz1 expression entry was “further enhanced the expression of Fizz1” and the Mrc1 expression result is listed as “did not affect”.
